Data reported in PubChem BioAssay AID200 (DTP/NCI, 2004).
Several values for one entry are separate records, joined by “and”; a condition that tells them apart may be missing. Identical values can stand only once. Inconclusive results and toxic doses are left out. Where a SMILES comes first, the peptide text is derived from it. [ ]: non-standard residue; d: D form. The star is where a group is joined. Cbz = O=C(OCc1ccccc1)*; Nva = CCC[CH](N)C(=O)O

Test system: B6C3F1 mice, B16 melanoma ip, median survival T/C
Test: NCI In Vivo Anticancer Drug Screen. Data for tumor model B16 Melanoma (intraperitoneal) in B6C3F1 mice
Details: endpoint: median survival time, schedule: Q01DX009 (ip), higher = longer survival
Summary of the method: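 Readout: survival or tumor size in treated mice relative to vehicle controls (T/C). Model uses transplantable tumors grown in mice.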

[1] = dose: 25.0 mg/kg/injection, vehicle: saline with Tween-80
[2] = dose: 50.0 mg/kg/injection, vehicle: saline with Tween-80
[3] = dose: 100.0 mg/kg/injection, vehicle: saline with Tween-80
[4] = dose: 200.0 mg/kg/injection, vehicle: saline with Tween-80
[5] = dose: 400.0 mg/kg/injection, vehicle: saline with Tween-80
[6] = dose: 6.25 mg/kg/injection, vehicle: saline with Tween-80
[7] = dose: 12.5 mg/kg/injection, vehicle: saline with Tween-80
[8] = dose: 6.25 mg/kg/injection, vehicle: Klucel (hydroxypropylcellulose) (HPC)
[9] = dose: 100.0 mg/kg/injection, vehicle: Klucel (hydroxypropylcellulose) (HPC)
[10] = dose: 200.0 mg/kg/injection, vehicle: Klucel (hydroxypropylcellulose) (HPC)
[11] = dose: 200.0 mg/kg/injection, vehicle: saline
[12] = dose: 3.12 mg/kg/injection, vehicle: saline with Tween-80
[13] = dose: 12.5 mg/kg/injection, vehicle: saline
[14] = dose: 25.0 mg/kg/injection, vehicle: saline
[15] = dose: 50.0 mg/kg/injection, vehicle: saline

For `Nc1nc(-c2ccccc2)c(N=O)c(=O)[nH]1`, the T/C (dose: 14.0 mg/kg/injection, vehicle: saline with Tween-80) was 96 % of control, the T/C (dose: 28.0 mg/kg/injection, vehicle: saline with Tween-80) was 94 % of control and the T/C (dose: 56.0 mg/kg/injection, vehicle: saline with Tween-80) was 91 % of control. For the same molecule, the T/C (dose: 112.0 mg/kg/injection, vehicle: saline with Tween-80) was 101 % of control.

For `COc1ccc(NC(=O)Oc2ccc3c(C)cc(=O)oc3c2)c(OC)c1`, the T/C [1] was 99 % of control, the T/C [2] was 94 % of control and the T/C [3] was 99 % of control. For the same molecule, the T/C [4] was 100 % of control and the T/C [5] was 98 % of control.

`CCCCNP1(NCCCC)=NP(NCCCC)(NCCCC)=NP(NCCCC)(NCCCC)=NP(NCCCC)(NCCCC)=N1` was tested, and the T/C [6] was 111 % of control and 98 % of control, the T/C [7] was 115 % of control and 122 % of control and 101 % of control and the T/C [1] was 119 % of control and 104 % of control. The T/C [2] was 115 % of control.

In the case of `O=c1[nH]cnc2c1ccn2C1OC(CO)C(O)C1O` (configuration not stated), the T/C (dose: 0.37 mg/kg/injection, vehicle: saline) is reported as 106 % of control, the T/C (dose: 0.75 mg/kg/injection, vehicle: saline) is reported as 99 % of control and the T/C (dose: 1.5 mg/kg/injection, vehicle: saline) is reported as 106 % of control. For the same molecule, the T/C (dose: 3.0 mg/kg/injection, vehicle: saline) was 113 % of control, the T/C (dose: 6.0 mg/kg/injection, vehicle: saline) was 115 % of control and the T/C (dose: 12.0 mg/kg/injection, vehicle: saline) was 105 % of control.

For `CCCNC1=C(C)C(=O)C2=C(C1=O)[C@H](COC(N)=O)[C@]1(OC)[C@@H]3N[C@@H]3CN21`, the T/C (dose: 0.39 mg/kg/injection, vehicle: Klucel (hydroxypropylcellulose) (HPC)) was 104 % of control, the T/C (dose: 0.39 mg/kg/injection, vehicle: saline) was 115 % of control and the T/C (dose: 0.78 mg/kg/injection, vehicle: Klucel (hydroxypropylcellulose) (HPC)) was 105 % of control. The T/C (dose: 1.56 mg/kg/injection, vehicle: Klucel (hydroxypropylcellulose) (HPC)) was 105 % of control, the T/C (dose: 1.56 mg/kg/injection, vehicle: saline) was 155 % of control and the T/C (dose: 3.12 mg/kg/injection, vehicle: Klucel (hydroxypropylcellulose) (HPC)) was 96 % of control. The T/C (dose: 3.12 mg/kg/injection, vehicle: saline) was 173 % of control and the T/C [8] was 111 % of control.

With `COC(=O)C(CSCc1ccccc1)NC(=O)C(C)NC(=O)OCc1ccccc1` (configuration not stated) the T/C (dose: 50.0 mg/kg/injection, vehicle: Klucel (hydroxypropylcellulose) (HPC)) was 97 % of control, the T/C [9] was 90 % of control and the T/C [10] was 90 % of control.

With `COc1c2occc2c(N=NN(C)C)c2ccc(=O)oc12` the T/C [6] was 98 % of control, the T/C [7] was 99 % of control and the T/C [1] was 104 % of control. For the same molecule, the T/C [2] was 107 % of control.

For `O=C(CCl)N1c2ccccc2Oc2cc3ccccc3cc21`, the T/C [2] was 111 % of control, the T/C [3] was 108 % of control and the T/C [4] was 97 % of control. For the same molecule, the T/C [11] was 122 % of control and 95 % of control, the T/C [5] was 92 % of control and the T/C (dose: 400.0 mg/kg/injection, vehicle: saline) was 97 % of control and 100 % of control.

`CC(C)(C)OC(=O)NC(Cc1c[nH]c2ccccc12)C(=O)ON1C(=O)CCC1=O` (configuration not stated) was tested, and the T/C [7] was 89 % of control, the T/C [1] was 100 % of control and the T/C [2] was 88 % of control.

For `O=C(CNC(=O)OCc1ccccc1)NCC(=O)NC(Cc1c[nH]c2ccccc12)C(=O)O` (configuration not stated), the T/C (dose: 50.0 mg/kg/injection, vehicle: suspension in saline) was 97 % of control, the T/C (dose: 100.0 mg/kg/injection, vehicle: suspension in saline) was 109 % of control and 117 % of control and 88 % of control and the T/C (dose: 200.0 mg/kg/injection, vehicle: suspension in saline) was 91 % of control and 99 % of control. For the same molecule, the T/C (dose: 400.0 mg/kg/injection, vehicle: suspension in saline) was 88 % of control and 92 % of control and 107 % of control.

With `Nc1nc(-c2ccc(S(=O)(=O)O)cc2)cc(=O)[nH]1` the T/C (dose: 3.31 mg/kg/injection, vehicle: saline) was 100 % of control, the T/C (dose: 6.62 mg/kg/injection, vehicle: saline) was 105 % of control and the T/C (dose: 13.25 mg/kg/injection, vehicle: saline) was 105 % of control. For the same molecule, the T/C (dose: 26.5 mg/kg/injection, vehicle: saline) was 96 % of control and 104 % of control, the T/C (dose: 53.0 mg/kg/injection, vehicle: saline) was 104 % of control and the T/C (dose: 106.0 mg/kg/injection, vehicle: saline) was 110 % of control.

In the case of `NC(=O)/C=C/C(=O)c1c(Cl)cccc1Cl`, the T/C (dose: 0.78 mg/kg/injection, vehicle: saline with Tween-80) is reported as 100 % of control, the T/C (dose: 1.56 mg/kg/injection, vehicle: saline with Tween-80) is reported as 103 % of control and the T/C [12] is reported as 90 % of control.

In the case of `OC1(CSc2ccccc2)CCCCC1`, the T/C [7] is reported as 90 % of control and 105 % of control, the T/C [1] is reported as 93 % of control and 102 % of control and the T/C [2] is reported as 117 % of control and 95 % of control. The T/C [3] was 93 % of control and 102 % of control, the T/C [4] was 105 % of control and the T/C [5] was 89 % of control.

With `O=Cc1c(CO)cc(O)c(O)c1O` the T/C (dose: 3.13 mg/kg/injection, vehicle: Klucel (hydroxypropylcellulose) (HPC)) was 115 % of control, the T/C [8] was 104 % of control and the T/C (dose: 12.5 mg/kg/injection, vehicle: Klucel (hydroxypropylcellulose) (HPC)) was 89 % of control. The T/C (dose: 25.0 mg/kg/injection, vehicle: Klucel (hydroxypropylcellulose) (HPC)) was 88 % of control.

In the case of `OC1COC(c2ccccc2)OC1C1OC(c2ccccc2)OC2COC(c3ccccc3)OC21` (configuration not stated), the T/C [12] is reported as 93 % of control, the T/C [6] is reported as 93 % of control and the T/C [7] is reported as 91 % of control.

With `CCCC(NC(=O)OCc1ccccc1)C(=O)NC(CC(C)C)C(N)=O` (configuration not stated) (Cbz-[Nva]-Leu-NH2; configuration not given here) the T/C [9] was 98 % of control, the T/C [10] was 94 % of control and the T/C (dose: 400.0 mg/kg/injection, vehicle: Klucel (hydroxypropylcellulose) (HPC)) was 97 % of control.

For `CNC(=O)ON(C(C)=O)C(=O)NC`, the T/C [13] was 102 % of control, the T/C [14] was 107 % of control and the T/C [15] was 102 % of control.

In the case of `COc1cccc(C2NC(=O)c3c(n[nH]c3N)S2)c1O` (configuration not stated), the T/C [7] is reported as 101 % of control, the T/C [1] is reported as 106 % of control and the T/C [2] is reported as 104 % of control. For the same molecule, the T/C [3] was 107 % of control and the T/C [4] was 95 % of control.

`Cc1ccc2c(c1)n([O-])c1cc(Cl)ccc1[n+]2=O` was tested, and the T/C [7] was 105 % of control, the T/C [1] was 101 % of control and the T/C [2] was 122 % of control. The T/C [4] was 111 % of control.

In the case of `Cc1cc2nc3ccc(N)cc3oc-2cc1=[N+](C)C`, the T/C [13] is reported as 106 % of control and the T/C [14] is reported as 112 % of control.

With `O=C1CC(c2ccc(Cl)cc2Cl)Oc2ccc(Cl)cc21` (configuration not stated) the T/C (dose: 3.13 mg/kg/injection, vehicle: saline with Tween-80) was 100 % of control, the T/C [6] was 93 % of control and the T/C [7] was 88 % of control. The T/C [1] was 100 % of control.

`O=c1[nH]cnc2c1nnn2C1OC(CO)C(O)C1O` (configuration not stated) was tested, and the T/C [14] was 96 % of control and 101 % of control, the T/C [15] was 116 % of control and 92 % of control and the T/C (dose: 100.0 mg/kg/injection, vehicle: saline) was 104 % of control. The T/C [11] was 100 % of control.

With `C#CCNC1=C(C)C(=O)C2=C(C1=O)[C@H](COC(N)=O)[C@]1(OC)[C@@H]3N[C@@H]3CN21` the T/C (dose: 0.75 mg/kg/injection, vehicle: distilled water + Tween-80) was 91 % of control, the T/C (dose: 1.5 mg/kg/injection, vehicle: distilled water + Tween-80) was 98 % of control and the T/C (dose: 6.25 mg/kg/injection, vehicle: distilled water + Tween-80) was 241 % of control. The T/C (dose: 12.0 mg/kg/injection, vehicle: distilled water + Tween-80) was 98 % of control.

`COC1=CC(=O)c2c(O)cc(OC)cc2C1=O` was tested, and the T/C (dose: 1.25 mg/kg/injection, vehicle: saline with Tween-80) was 105 % of control, the T/C (dose: 2.5 mg/kg/injection, vehicle: saline with Tween-80) was 105 % of control and the T/C (dose: 5.0 mg/kg/injection, vehicle: saline with Tween-80) was 121 % of control. The T/C (dose: 10.0 mg/kg/injection, vehicle: saline with Tween-80) was 109 % of control.
